Assays:
Assay type in all cases: cell-based
[1] = target: human EGFR E746-A750 deletion and T790M Mutation (DT) (Homo sapiens (Human), UniProt P00533, DEL746-750/T790M); test: Ba/F3-EGFR-Del/T790M cell anti-proliferative assay (CellTiter 96 MTS, 72 h); details: Ba/F3-EGFR-Del/T790M cells; for IC50: read-out: EGFR exon 19 deletion and T790M mutation IC50
Description: An expression vector, pLVX-IRES puro (Clontech) coding for human EGFR E746-A750 deletion and T790M Mutation, was transfected into HEK293 cells by the Trans-Lentiviral ORF Packaging System (Thermo Scientific), to produce virus encoding EGFR exon 19 deletion and T790M mutations. […] Ba/F3 cells expressing EGFR E746-A750 deletion and T790M Mutation (named Ba/F3-EGFR-Del/T790M) can proliferate in the absence of IL-3. The anti-proliferative activity of compounds was determined as follows: BaF3-EGFR-Del/T790M cells seeded in 96 well plates (2500 cells/well) were treated with test compound (dissolved in DMSO) at a series of concentrations (4-fold dilution, top concentration: 10,000 nM). The plates were incubated for 72 h in a 37° C. incubator with 5% CO2, and the number of viable cells in each well were measured indirectly by CellTiter 96® Aqueous One Solution Cell Proliferation Assay (Promega; this assay is a colorimetric method for determining the number of viable cells through measurement of their metabolic activity by detection of enzymatic conversion of tetrazolium salts into blue formazan derivatives). Reagent (20 μL) was added into each well, and the plates were returned to the incubator for 2 h. The absorbance in each well was then measured at 490 nm using an Envision plate reader (Perkin Elmer).

[2] = target: Her2 exon 20 YVMA insertion (A775_G776ins YVMA) (Homo sapiens (Human), UniProt P04626, INS775YVMA); test: Ba/F3-Her2 Exon20 YVMA cell anti-proliferative assay (CellTiter 96 MTS, 72 h); details: Ba/F3-Her2 Exon20 YVMA cells
Her2 exon 20 YVMA insertion (A775_G776ins YVMA), sequence (P04626 other isoform, or with tags, fused parts or gaps ins YVMA behind 775): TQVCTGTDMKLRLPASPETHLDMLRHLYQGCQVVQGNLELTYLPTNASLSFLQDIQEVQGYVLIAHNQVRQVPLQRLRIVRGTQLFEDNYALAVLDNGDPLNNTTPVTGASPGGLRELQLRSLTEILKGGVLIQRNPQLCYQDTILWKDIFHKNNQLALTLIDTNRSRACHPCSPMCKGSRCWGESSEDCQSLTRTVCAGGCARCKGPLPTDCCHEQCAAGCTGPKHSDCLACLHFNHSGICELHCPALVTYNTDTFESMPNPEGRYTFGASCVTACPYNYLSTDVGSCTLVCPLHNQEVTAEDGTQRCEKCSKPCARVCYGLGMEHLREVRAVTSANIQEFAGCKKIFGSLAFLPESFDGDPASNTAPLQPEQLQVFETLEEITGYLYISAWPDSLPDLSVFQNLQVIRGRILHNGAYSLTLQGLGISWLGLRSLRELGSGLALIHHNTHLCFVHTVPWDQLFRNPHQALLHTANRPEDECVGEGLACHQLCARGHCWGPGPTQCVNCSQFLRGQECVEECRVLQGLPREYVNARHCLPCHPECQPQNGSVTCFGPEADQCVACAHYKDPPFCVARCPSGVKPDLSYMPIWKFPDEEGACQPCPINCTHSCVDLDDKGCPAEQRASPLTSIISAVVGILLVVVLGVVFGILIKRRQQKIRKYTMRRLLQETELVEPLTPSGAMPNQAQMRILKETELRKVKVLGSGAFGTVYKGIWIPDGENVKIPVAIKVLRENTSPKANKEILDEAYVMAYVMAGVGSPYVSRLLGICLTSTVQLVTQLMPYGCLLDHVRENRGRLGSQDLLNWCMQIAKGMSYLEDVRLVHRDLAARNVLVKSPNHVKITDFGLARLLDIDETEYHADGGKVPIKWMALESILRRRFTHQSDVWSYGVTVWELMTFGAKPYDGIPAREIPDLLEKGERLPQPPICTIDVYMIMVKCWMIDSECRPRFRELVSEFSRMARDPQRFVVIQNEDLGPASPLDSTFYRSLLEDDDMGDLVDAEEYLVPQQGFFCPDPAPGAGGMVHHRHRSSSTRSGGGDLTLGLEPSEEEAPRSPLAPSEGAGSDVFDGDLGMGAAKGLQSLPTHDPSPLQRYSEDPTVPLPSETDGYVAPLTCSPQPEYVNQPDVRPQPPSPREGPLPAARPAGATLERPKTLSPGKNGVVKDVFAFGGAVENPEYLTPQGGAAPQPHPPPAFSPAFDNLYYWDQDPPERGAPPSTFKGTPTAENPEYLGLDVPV
Description: Ba/F3 cells expressing Her2 Exon20 YVMA insertions (named Ba/F3-Her2 Exon20 YVMA) can proliferate in the absence of IL-3.

[3] = target: human EGFR L858R and T790M double mutation (LT) (Homo sapiens (Human), UniProt P00533, L858R/T790M); test: Ba/F3-EGFR L858R/T790M cell anti-proliferative assay (CellTiter 96 MTS, 72 h); details: Ba/F3-EGFR L858R/T790M cells; for IC50: read-out: EGFR exon 21 L858R and T790M mutation IC50;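 on all read-outs here: Ba/F3 cells carrying the EGFR L858R/T790M double mutant are able to grow without IL-3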
human EGFR L858R and T790M double mutation (LT), sequence (P00533 25-1210 T790M/L858R): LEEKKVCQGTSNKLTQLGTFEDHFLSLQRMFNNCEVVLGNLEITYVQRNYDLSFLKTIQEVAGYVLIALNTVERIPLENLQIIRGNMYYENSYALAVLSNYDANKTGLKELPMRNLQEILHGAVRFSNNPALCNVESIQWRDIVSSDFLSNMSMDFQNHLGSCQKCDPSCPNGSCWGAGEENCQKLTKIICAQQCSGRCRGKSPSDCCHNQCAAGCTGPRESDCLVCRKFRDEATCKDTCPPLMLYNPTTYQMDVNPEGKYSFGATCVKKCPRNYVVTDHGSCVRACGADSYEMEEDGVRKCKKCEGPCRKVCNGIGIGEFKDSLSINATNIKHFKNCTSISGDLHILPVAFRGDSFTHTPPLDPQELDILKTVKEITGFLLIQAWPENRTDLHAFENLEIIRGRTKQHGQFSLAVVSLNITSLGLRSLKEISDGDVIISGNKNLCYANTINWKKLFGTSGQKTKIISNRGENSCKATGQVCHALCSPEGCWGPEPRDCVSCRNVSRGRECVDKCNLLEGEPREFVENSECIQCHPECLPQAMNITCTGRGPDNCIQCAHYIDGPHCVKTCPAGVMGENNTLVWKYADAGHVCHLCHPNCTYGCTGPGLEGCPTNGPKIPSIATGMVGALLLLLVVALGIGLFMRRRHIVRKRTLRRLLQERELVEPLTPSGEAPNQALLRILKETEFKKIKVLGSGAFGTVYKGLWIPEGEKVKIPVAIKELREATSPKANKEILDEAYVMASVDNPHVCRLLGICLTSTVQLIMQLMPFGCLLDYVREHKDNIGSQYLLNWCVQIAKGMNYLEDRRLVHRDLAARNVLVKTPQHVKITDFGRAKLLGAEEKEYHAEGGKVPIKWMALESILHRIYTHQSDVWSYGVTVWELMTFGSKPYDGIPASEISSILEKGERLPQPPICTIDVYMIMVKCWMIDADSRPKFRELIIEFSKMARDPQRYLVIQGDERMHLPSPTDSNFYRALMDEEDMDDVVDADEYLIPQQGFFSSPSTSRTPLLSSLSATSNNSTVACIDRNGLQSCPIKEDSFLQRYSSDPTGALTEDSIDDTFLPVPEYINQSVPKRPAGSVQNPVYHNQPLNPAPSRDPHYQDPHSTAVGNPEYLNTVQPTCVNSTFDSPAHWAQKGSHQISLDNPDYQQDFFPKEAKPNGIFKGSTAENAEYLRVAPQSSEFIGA
Description: An expression vector, pLVX-IRES puro (Clontech) coding for human EGFR L858R and T790M double mutation, was transfected into HEK293 cells by the Trans-Lentiviral ORF Packaging System (Thermo Scientific), to produce virus encoding EGFR L858R and T790M double mutations. […] Ba/F3 cells expressing EGFR L858R and T790M double mutation (named Ba/F3-EGFR L858R/T790M) can proliferate in the absence of IL-3. The anti-proliferative activity of compounds was determined as follows: BaF3-EGFR L858R/T790M cells seeded in 96 well plates (2500 cells/well) were treated with test compound (dissolved in DMSO) at a series of concentrations (4-fold dilution, top concentration: 10,000 nM). The plates were incubated for 72 h in a 37° C. incubator with 5% CO2, and the number of viable cells in each well were measured indirectly by CellTiter 96® Aqueous One Solution Cell Proliferation Assay (Promega; this assay is a colorimetric method for determining the number of viable cells through measurement of their metabolic activity by detection of enzymatic conversion of tetrazolium salts into blue formazan derivatives). Reagent (20 μL) was added into each well, and the plates were returned to the incubator for 2 h. The absorbance in each well was then measured at 490 nm using an Envision plate reader (Perkin Elmer).

[4] = target: human EGFR exon 20 insertion NPG (H773_V774insNPG) (Homo sapiens, UniProt P00533, INS773NPG, cells depend on it); test: Ba/F3-EGFR-Exon20-NPG cell anti-proliferative assay (CellTiter 96 MTS, 72 h); details: read-out: EGFR exon 20 NPG insertion IC50
[5] = target: human EGFR exon 20 insertion ASV (V769_D770insASV) (Homo sapiens (Human), UniProt P00533, INS769ASV); test: Ba/F3-EGFR-Exon20-ASV cell anti-proliferative assay (CellTiter 96 MTS, 72 h); details: Ba/F3-EGFR-Exon20-ASV cells;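 further: Ba/F3 cells bearing the EGFR exon 20 ASV insertion, a line able to proliferate without IL-3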
human EGFR exon 20 insertion ASV (V769_D770insASV), sequence (P00533 other isoform, or with tags, fused parts or gaps ins ASV behind 769): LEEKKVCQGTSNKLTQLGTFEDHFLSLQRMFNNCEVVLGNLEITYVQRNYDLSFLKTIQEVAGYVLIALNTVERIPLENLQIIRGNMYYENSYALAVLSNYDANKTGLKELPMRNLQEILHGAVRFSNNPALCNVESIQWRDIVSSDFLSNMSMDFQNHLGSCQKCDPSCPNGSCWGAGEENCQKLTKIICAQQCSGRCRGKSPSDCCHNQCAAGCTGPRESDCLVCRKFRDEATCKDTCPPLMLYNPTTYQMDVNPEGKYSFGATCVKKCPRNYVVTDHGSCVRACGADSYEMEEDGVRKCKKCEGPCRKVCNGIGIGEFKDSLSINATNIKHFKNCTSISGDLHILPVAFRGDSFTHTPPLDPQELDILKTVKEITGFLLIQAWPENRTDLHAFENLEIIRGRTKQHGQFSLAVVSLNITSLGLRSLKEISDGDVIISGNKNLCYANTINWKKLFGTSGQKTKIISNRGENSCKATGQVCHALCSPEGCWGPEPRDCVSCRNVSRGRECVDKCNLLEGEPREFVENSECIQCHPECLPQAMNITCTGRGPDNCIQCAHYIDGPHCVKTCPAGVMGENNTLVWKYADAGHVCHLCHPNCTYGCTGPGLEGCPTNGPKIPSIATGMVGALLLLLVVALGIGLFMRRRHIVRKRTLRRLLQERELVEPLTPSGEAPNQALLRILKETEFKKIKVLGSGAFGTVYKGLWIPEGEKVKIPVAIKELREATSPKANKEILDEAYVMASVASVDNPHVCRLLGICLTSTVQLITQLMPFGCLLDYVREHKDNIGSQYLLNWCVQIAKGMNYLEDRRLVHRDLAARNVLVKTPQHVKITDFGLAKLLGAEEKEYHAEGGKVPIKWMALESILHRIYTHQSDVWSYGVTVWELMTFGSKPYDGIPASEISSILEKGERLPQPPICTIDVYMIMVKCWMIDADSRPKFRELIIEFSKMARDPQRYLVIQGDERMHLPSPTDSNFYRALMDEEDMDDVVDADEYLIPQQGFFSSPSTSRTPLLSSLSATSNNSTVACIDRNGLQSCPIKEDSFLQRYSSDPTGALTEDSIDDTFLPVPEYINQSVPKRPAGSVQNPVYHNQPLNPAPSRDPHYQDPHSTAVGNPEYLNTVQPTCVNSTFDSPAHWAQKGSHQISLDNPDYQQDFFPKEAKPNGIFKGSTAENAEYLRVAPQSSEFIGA

human EGFR E746-A750 deletion and T790M Mutation (DT), sequence (P00533 other isoform, or with tags, fused parts or gaps T790M/del E746-A750): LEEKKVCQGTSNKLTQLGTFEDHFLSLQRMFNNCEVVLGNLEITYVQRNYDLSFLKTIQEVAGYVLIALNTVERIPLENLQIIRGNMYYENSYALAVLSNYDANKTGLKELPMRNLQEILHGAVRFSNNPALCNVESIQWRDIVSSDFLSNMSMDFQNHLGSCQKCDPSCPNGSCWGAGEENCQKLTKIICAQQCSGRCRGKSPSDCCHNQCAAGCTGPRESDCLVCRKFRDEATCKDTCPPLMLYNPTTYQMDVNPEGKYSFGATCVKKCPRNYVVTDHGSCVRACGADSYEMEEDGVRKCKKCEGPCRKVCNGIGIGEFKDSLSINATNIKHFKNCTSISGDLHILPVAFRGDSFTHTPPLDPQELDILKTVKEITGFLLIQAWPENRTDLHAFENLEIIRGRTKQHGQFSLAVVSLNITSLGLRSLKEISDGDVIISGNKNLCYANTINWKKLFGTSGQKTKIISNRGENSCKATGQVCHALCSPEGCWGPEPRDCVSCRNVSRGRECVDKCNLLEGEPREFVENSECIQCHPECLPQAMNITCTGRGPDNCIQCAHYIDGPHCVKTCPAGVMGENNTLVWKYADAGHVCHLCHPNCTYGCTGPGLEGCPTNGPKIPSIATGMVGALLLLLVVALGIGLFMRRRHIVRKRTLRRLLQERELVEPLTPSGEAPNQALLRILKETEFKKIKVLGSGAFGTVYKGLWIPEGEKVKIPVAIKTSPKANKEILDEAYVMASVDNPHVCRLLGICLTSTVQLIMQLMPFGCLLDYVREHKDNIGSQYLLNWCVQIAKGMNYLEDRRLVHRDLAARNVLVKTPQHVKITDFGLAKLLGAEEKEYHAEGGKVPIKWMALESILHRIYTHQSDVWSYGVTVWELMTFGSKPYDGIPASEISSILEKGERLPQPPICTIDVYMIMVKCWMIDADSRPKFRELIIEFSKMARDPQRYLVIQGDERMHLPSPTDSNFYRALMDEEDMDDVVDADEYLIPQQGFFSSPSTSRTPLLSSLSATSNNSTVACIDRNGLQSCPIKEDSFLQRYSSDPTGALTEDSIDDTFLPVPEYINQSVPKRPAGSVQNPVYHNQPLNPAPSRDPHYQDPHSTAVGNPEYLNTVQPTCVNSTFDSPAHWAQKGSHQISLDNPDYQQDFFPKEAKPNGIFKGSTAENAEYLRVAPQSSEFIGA

Row | Structure (SMILES) | IC50 [1] [nM] | IC50 [2] [nM] | IC50 [3] [nM] | IC50 [4] [nM] | IC50 [5] [nM] | EGFR exon 19 deletion and T790M mutation IC50 [1] | EGFR exon 21 L858R and T790M mutation IC50 [3]
1 | C=CC(=O)Nc1cc(Nc2ncc(C(=O)OCC)c(-c3cn(C)c4ccccc34)n2)c(OC)cc1N(C)CCN(C)C [Example 9, ethyl 2-((5-acrylamido-4-((2-(dimethylamino)ethyl)(methyl)amino)-2-methoxyphenyl)amino)-4-(1-methyl-1H-indol-3-yl)pyrimidine-5-carboxylate] | < 100 | < 100 | < 100 | < 100 | < 100 | – | –
2 | C=CC(=O)Nc1cc(Nc2ncc(C(=O)OC(C)C)c(-c3c[nH]c4ncccc34)n2)c(OC)cc1N(C)CCN(C)C [Example 66, isopropyl 2-((5-acrylamido-4-((2-(dimethylamino)ethyl)(methyl)amino)-2-methoxyphenyl)amino)-4-(1H-pyrrolo[2,3-b]pyridin-3-yl)pyrimidine-5-carboxylate] | < 100 | < 100 | < 100 | < 100 | < 100 | – | –
3 | C=CC(=O)Nc1cc(Nc2nccc(-c3c(-c4ccc(OCc5ccccn5)c(Cl)c4)n(C)c4ccccc34)n2)c(OC)cc1N(C)CCN(C)C [Example 5, N-(5-((4-(2-(3-chloro-4-(pyridin-2-ylmethoxy)phenyl)-1-methyl-1H-indol-3-yl)pyrimidin-2-yl)amino)-2-((2-(dimethylamino)ethyl)(methyl)amino)-4-methoxyphenyl)acrylamide] | – | 100 to 500 | – | 100 to 500 | 100 to 500 | B (Group B compounds have an IC50 value for the indicated mutant between about 100 to about 500 nM) | B (Group B compounds have an IC50 value for the indicated mutant between about 100 to about 500 nM)
4 | C=CC(=O)Nc1cc(Nc2ncc(C(=O)OC(C)C)c(-c3cn(C)c4ncccc34)n2)c(OC)cc1N(C)CCN(C)C [Example 34, isopropyl 2-((5-acrylamido-4-((2-(dimethylamino)ethyl)(methyl)amino)-2-methoxyphenyl)amino)-4-(1-methyl-1H-pyrrolo[2,3-b]pyridin-3-yl)pyrimidine-5-carboxylate] | < 100 | < 100 | < 100 | < 100 | < 100 | – | –
5 | C=CC(=O)Nc1cc(Nc2ncc(Cl)c(-c3cnn4ccccc34)n2)c(OC)cc1N(C)CCN(C)C [Example 52, N-(5-((5-chloro-4-(pyrazolo[1,5-a]pyridin-3-yl)pyrimidin-2-yl)amino)-2-((2-(dimethylamino)ethyl)-(methyl)amino)-4-methoxyphenyl)-acrylamide] | < 100 | 100 to 500 | < 100 | < 100 | < 100 | – | –
6 | C=CC(=O)Nc1cc(Nc2ncc(C(=O)OC(C)C)c(-c3cn(C)c4ccccc34)n2)c(OC)cc1N(C)CCN(C)C [Example 10, isopropyl 2-((5-acrylamido-4-((2-(dimethylamino)ethyl)(methyl)amino)-2-methoxyphenyl)amino)-4-(1-methyl-1H-indol-3-yl)pyrimidine-5-carboxylate] | < 100 | < 100 | < 100 | < 100 | < 100 | – | –
7 | C=CC(=O)Nc1cc(Nc2ncc(C(=O)OC(C)C)c(-c3cn(C)c4ncccc34)n2)c(OC)cc1N(C)CCNC [Example 74, isopropyl 2-((5-acrylamido-2-methoxy-4-(methyl(2-(methylamino)ethyl)amino)phenyl)amino)-4-(1-methyl-1H-pyrrolo[2,3-b]pyridin-3-yl)pyrimidine-5-carboxylate] | < 100 | 100 to 500 | – | < 100 | < 100 | – | B (Group B compounds have an IC50 value for the indicated mutant between about 100 to about 500 nM)
8 | C=CC(=O)Nc1cc(Nc2ncc(C(=O)OC(C)C)c(-c3cn(C)c4ccccc34)n2)c(OC)cc1N(C)C[C@@H]1CCCN1C [Example 35, (S)-isopropyl 2-((5-acrylamido-2-methoxy-4-(methyl((1-methylpyrrolidin-2-yl)methyl)amino)phenyl)amino)-4-(1-methyl-1H-indol-3-yl)pyrimidine-5-carboxylate] | < 100 | < 100 | < 100 | < 100 | < 100 | – | –
9 | C=CC(=O)Nc1cc(Nc2ncc(C(=O)OC(C)C)c(-c3cn(C)c4ccccc34)n2)c(OC)cc1N(C)CC1CCCN1C (stereo not drawn) [Example 17, isopropyl 2-((5-acrylamido-2-methoxy-4-(methyl((1-methylpyrrolidin-2-yl)methyl)amino)phenyl)amino)-4-(1-methyl-1H-indol-3-yl)pyrimidine-5-carboxylate] | < 100 | < 100 | < 100 | < 100 | < 100 | – | –
10 | C=CC(=O)Nc1cc(Nc2ncc(C(=O)OC(C)C)c(-c3cn(C)c4ccccc34)n2)c(OC)cc1N(C)CCNC [Example 58, isopropyl 2-((5-acrylamido-2-methoxy-4-(methyl(2-(methylamino)ethyl)-amino)phenyl)amino)-4-(1-methyl-1H-indol-3-yl)pyrimidine-5-carboxylate] | < 100 | < 100 | < 100 | < 100 | < 100 | – | –
11 | C=CC(=O)Nc1cc(Nc2nccc(-c3c(-c4ccccc4)n(C)c4ccccc34)n2)c(OC)cc1N(C)CCN(C)C [Example 7, N-(2-((2-(dimethylamino)ethyl)(methyl)amino)-4-methoxy-5-((4-(1-methyl-2-phenyl-1H-indol-3-yl)pyrimidin-2-yl)amino)phenyl)acrylamide] | < 100 | 100 to 500 | < 100 | < 100 | 100 to 500 | – | –
12 | C=CC(=O)Nc1cc(Nc2ncc(C(=O)OC(C)C)c(-c3cn(C)c4ccccc34)n2)c(OC)cc1N(C)C[C@@H]1CCCN1 [Example 73] | < 100 | < 100 | < 100 | < 100 | < 100 | – | –
13 | C=CC(=O)Nc1cc(Nc2ncc(C(=O)OC(C)C)c(-c3c[nH]c4ccccc34)n2)c(OC)cc1N(C)CCN(C)C [Example 30, isopropyl 2-((5-acrylamido-4-((2-(dimethylamino)ethyl)(methyl)amino)-2-methoxyphenyl)amino)-4-(1H-indol-3-yl)pyrimidine-5-carboxylate] | < 100 | < 100 | < 100 | < 100 | < 100 | – | –
14 | C=CC(=O)Nc1cc(Nc2ncc(C(=O)OC(C)C)c(-c3cn(C)c4ccccc34)n2)c(OC)cc1N(C)C[C@H]1CCCN1C [Example 36, (R)-isopropyl 2-((5-acrylamido-2-methoxy-4-(methyl((1-methylpyrrolidin-2-yl)methyl)amino)phenyl)amino)-4-(1-methyl-1H-indol-3-yl)pyrimidine-5-carboxylate] | < 100 | < 100 | < 100 | < 100 | < 100 | – | –
15 | C=CC(=O)Nc1cc(Nc2ncc(C(=O)OC(C)C)c(-c3cn(C)c4ccccc34)n2)c(OC)cc1OCCN(C)C [Example 67, isopropyl 2-((5-acrylamido-4-(2-(dimethylamino)ethoxy)-2-methoxyphenyl)amino)-4-(1-methyl-1H-indol-3-yl)pyrimidine-5-carboxylate] | < 100 | < 100 | < 100 | < 100 | < 100 | – | –
16 | C=CC(=O)Nc1cc(Nc2ncc(C(=O)OC(C)C)c(-c3cn(CC)c4ccccc34)n2)c(OC)cc1N(C)CCN(C)C [Example 77, isopropyl 2-((5-acrylamido-4-((2-(dimethylamino)ethyl)(methyl)amino)-2-methoxyphenyl)amino)-4-(1-ethyl-1H-indol-3-yl)pyrimidine-5-carboxylate] | < 100 | < 100 | < 100 | < 100 | < 100 | – | –
17 | C=CC(=O)Nc1cc(Nc2ncc(CC)c(-c3cn(CC(=O)NC)c4ccccc34)n2)c(OC)cc1N(C)CCN(C)C [Example 72, N-(2-((2-(dimethylamino)ethyl)(methyl)amino)-5-((5-ethyl-4-(1-(2-(methylamino)-2-oxoethyl)-1H-indol-3-yl)pyrimidin-2-yl)amino)-4-methoxyphenyl)acrylamide] | < 100 | 100 to 500 | < 100 | – | < 100 | – | –
18 | C=CC(=O)Nc1cc(Nc2ncc(Cl)c(-c3c[nH]c4ccccc34)n2)c(OC)cc1N(C)CCN(C)C [Example 56, N-(5-((5-chloro-4-(1H-indol-3-yl)pyrimidin-2-yl)amino)-2-((2-(dimethylamino)ethyl)(methyl)amino)-4-methoxyphenyl)acrylamide] | < 100 | < 100 | < 100 | < 100 | < 100 | – | –
19 | C=CC(=O)Nc1cc(Nc2nccc(-c3c(C(=O)OC)n(C)c4ccccc34)n2)c(OC)cc1N(C)CCN(C)C [Example 86, methyl 3-(2-((5-acrylamido-4-((2-(dimethylamino)ethyl)(methyl)amino)-2-methoxyphenyl)amino)pyrimidin-4-yl)-1-methyl-1H-indole-2-carboxylate] | < 100 | 500 to 1000 | < 100 | – | < 100 | – | –
